Each compound was assayed on c-Myc (assay: c-Myc immunofluorescence assay). Settings: A549 cells, 24 hours, anti-c-Myc immunofluorescence.
Format: cell-based, human
Method: A549 human non-small cell lung carcinoma cells were treated for 24 hours with increasing compound concentration, cells were fixed and stained with a nuclei stain (DAPI) and anti-c-Myc fluorescent antibody. The c-Myc signal was quantified by image analysis, and data was exported and analyzed using TIBCO Spotfire® (TIBCO Corporation). Dose response curves were generated and fitted with logaristic regression to calculate potency (EC50 values). Potency values are presented in Table 2 for all compounds and are shown for selected compounds (FIG. 3).
A549 cells were grown in 384-wells plates (Perkin Elmer, Cat. 6057300) for 48 hours, treated with compounds and then fixed for 20 min in 4% paraformaldehyde. After that permeabilization was done using 0.1% Triton X-100 in PBS for 20 min. Primary anti-c-Myc antibody (Abcam, ab32072) staining was performed for 90 min at room temperature. Cells then were washed twice with PBS and incubated with secondary antibody (Abcam, ab150075) for 90 min at room temperature. Nuclei were stained with DAPI for 10 min and washed twice with PBS.
Cell images were taken with Operetta (Perkin Elmer, USA), a wide-field fluorescence microscope at 20× magnification. After acquisition, the images were transferred to Columbus software (Perkin-Elmer) for image analysis. In Columbus, cells were identified by their nucleus, using the “Find Nuceli” module and cytoplasm was detected based on the secondary antibody channel. Subsequently, the fluorescent signal was enumerated in the identified cell region. Then data was exported to a data analysis and visualization software, Tibco Spotfire, USA.

Row | SMILES | Myc Efficacy (−LogEC50)
1 | COc1ccc(-c2noc(N3CCC(C(=O)N4CCC(OC)CC4)CC3)n2)cc1 [Compound 134, (1-(3-(4-methoxyphenyl)-1,2,4-oxadiazol-5-yl)piperidin-4-yl)(4-methoxypiperidin-1-yl)methanone] | + (+ >3 and <5)
2 | COc1ccc(-c2noc(N3CCC(Oc4ccccc4)CC3)n2)cc1 [Compound 135, 3-(4-methoxyphenyl)-5-(4-phenoxypiperidin-1-yl)-1,2,4-oxadiazole] | − (− ≤3)
3 | COc1ccc(-c2noc(N3CCC(c4ccccc4)CC3)n2)cc1 [Compound 136, 3-(4-methoxyphenyl)-5-(4-phenylpiperidin-1-yl)-1,2,4-oxadiazole] | − (− ≤3)
4 | CNC(=O)C1CCN(c2nc(-c3ccc(OC)cc3)no2)CC1 [Compound 137, 1-(3-(4-methoxyphenyl)-1,2,4-oxadiazol-5-yl)-N-methylpiperidine-4-carboxamide] | + (+ >3 and <5)
5 | COc1ccc(-c2noc(N3CCNCC3)n2)cc1 [Compound 138, 3-(4-methoxyphenyl)-5-(piperazin-1-yl)-1,2,4-oxadiazole] | + (+ >3 and <5)
6 | COc1ccc(-c2noc(N3CCC(C(=O)N4CCOCC4)CC3)n2)cc1 [Compound 139, (1-(3-(4-methoxyphenyl)-1,2,4-oxadiazol-5-yl)piperidin-4-yl)(morpholino)methanone] | + (+ >3 and <5)
7 | COc1ccc(-c2noc(N3CCC(C(=O)NCCCN4CCC(C)CC4)CC3)n2)cc1 [Compound 140, 1-(3-(4-methoxyphenyl)-1,2,4-oxadiazol-5-yl)-N-(3-(4-methylpiperidin-1-yl)propyl)piperidine-4-carboxamide] | + (+ >3 and <5)
8 | COc1ccc(-c2noc(N3CCC(C(=O)NCCCN4CCC[C@H](C)C4)CC3)n2)cc1 [Compound 141, (S)-1-(3-(4-methoxyphenyl)-1,2,4-oxadiazol-5-yl)-N-(3-(3-methylpiperidin-1-yl)propyl)piperidine-4-carboxamide] | − (− ≤3)
9 | COc1ccc(-c2noc(N3CCC(C(=O)NCCCN4CCC[C@@H](C)C4)CC3)n2)cc1 [Compound 142, (R)-1-(3-(4-methoxyphenyl)-1,2,4-oxadiazol-5-yl)-N-(3-(3-methylpiperidin-1-yl)propyl)piperidine-4-carboxamide] | + (+ >3 and <5)
10 | COc1ccc(-c2noc(N3CCC(C(=O)Nc4ccccc4)CC3)n2)cc1 [Compound 143, 1-(3-(4-methoxyphenyl)-1,2,4-oxadiazol-5-yl)-N-phenylpiperidine-4-carboxamide] | ++ (++ ≥5 and <6)
11 | COc1ccc(-c2noc(N3CCN(C(=O)N4CCOCC4)CC3)n2)cc1 [Compound 144, (4-(3-(4-methoxyphenyl)-1,2,4-oxadiazol-5-yl)piperazin-1-yl)(morpholino)methanone] | + (+ >3 and <5)
12 | COc1ccc(-c2noc(N3CCN(C(=O)N4CCC(C)CC4)CC3)n2)cc1 [Compound 145, (4-(3-(4-methoxyphenyl)-1,2,4-oxadiazol-5-yl)piperazin-1-yl)(4-methylpiperidin-1-yl)methanone] | + (+ >3 and <5)
13 | COc1ccc(-c2noc(N3CCN(C(=O)N4CCS(=O)(=O)CC4)CC3)n2)cc1 [Compound 146, (1,1-dioxidothiomorpholino)(4-(3-(4-methoxyphenyl)-1,2,4-oxadiazol-5-yl)piperazin-1-yl)methanone] | + (+ >3 and <5)
14 | COc1ccc(-c2noc(N3CCN(C(C)=O)CC3)n2)cc1 [Compound 147, 1-(4-(3-(4-methoxyphenyl)-1,2,4-oxadiazol-5-yl)piperazin-1-yl)ethan-1-one] | + (+ >3 and <5)
15 | COc1ccc(-c2noc(N3CCN(C(=O)C4CCOCC4)CC3)n2)cc1 [Compound 148, (4-(3-(4-methoxyphenyl)-1,2,4-oxadiazol-5-yl)piperazin-1-yl)(tetrahydro-2H-pyran-4-yl)methanone] | + (+ >3 and <5)
16 | COc1ccc(-c2noc(CCC(=O)NC[C@H]3CCN(Cc4ccc(C)cc4)C3)n2)cc1 [Compound 149, (R)-3-(3-(4-methoxyphenyl)-1,2,4-oxadiazol-5-yl)-N-((1-(4-methylbenzyl)pyrrolidin-3-yl)methyl)propanamide] | ++ (++ ≥5 and <6)

Row | SMILES | Myc Efficacy (−LogEC50)
17 | COc1ccc(-c2noc(CCC(=O)NC[C@@H]3CCN(Cc4ccc(C)cc4)C3)n2)cc1 [Compound 150, (S)-3-(3-(4-methoxyphenyl)-1,2,4-oxadiazol-5-yl)-N-((1-(4-methylbenzyl)pyrrolidin-3-yl)methyl)propanamide] | ++ (++ ≥5 and <6)
18 | COc1ccc(-c2noc(CCC(=O)NCCCN3CCC(Cc4ccccc4)CC3)n2)cc1 [Compound 151, N-(3-(4-benzylpiperidin-1-yl)propyl)-3-(3-(4-methoxyphenyl)-1,2,4-oxadiazol-5-yl)propanamide] | ++ (++ ≥5 and <6)
19 | COc1ccc(-c2noc(N3CCC(C(=O)NCCCN4CCC(Cc5ccccc5)CC4)CC3)n2)cc1 [Compound 152, N-(3-(4-benzylpiperidin-1-yl)propyl)-1-(3-(4-methoxyphenyl)-1,2,4-oxadiazol-5-yl)piperidine-4-carboxamide] | +++ (+++ ≥6)
20 | COc1ccc(-c2noc(C3CN(C(=O)N4CCC(C)CC4)C3)n2)cc1 [Compound 153, (3-(3-(4-methoxyphenyl)-1,2,4-oxadiazol-5-yl)azetidin-1-yl)(4-methylpiperidin-1-yl)methanone] | + (+ >3 and <5)
21 | Cc1ccc(CN2CCC(CNC(=O)C3CCN(c4nc(-c5ccc(Cl)cc5)no4)CC3)C2)cc1 (centres unmarked) [Compound 154, 1-(3-(4-chlorophenyl)-1,2,4-oxadiazol-5-yl)-N-((1-(4-methylbenzyl)pyrrolidin-3-yl)methyl)piperidine-4-carboxamide] | ++ (++ ≥5 and <6)
22 | Cc1ccc(CN2CCC(CNC(=O)C3CCN(c4nc(-c5cccc(Cl)c5)no4)CC3)C2)cc1 (centres unmarked) [Compound 155, 1-(3-(3-chlorophenyl)-1,2,4-oxadiazol-5-yl)-N-((1-(4-methylbenzyl)pyrrolidin-3-yl)methyl)piperidine-4-carboxamide] | ++ (++ ≥5 and <6)
23 | Cc1ccc(CN2CCC(CNC(=O)C3CCN(c4nc(-c5ccccc5Cl)no4)CC3)C2)cc1 (centres unmarked) [Compound 156, 1-(3-(2-chlorophenyl)-1,2,4-oxadiazol-5-yl)-N-((1-(4-methylbenzyl)pyrrolidin-3-yl)methyl)piperidine-4-carboxamide] | + (+ >3 and <5)
24 | COc1ccc(-c2cccc(N3CCC(C(=O)NCC4CCN(Cc5ccc(C)cc5)C4)CC3)n2)cc1 (centres unmarked) [Compound 157, 1-(6-(4-methoxyphenyl)pyridin-2-yl)-N-((1-(4-methylbenzyl)pyrrolidin-3-yl)methyl)piperidine-4-carboxamide] | ++ (++ ≥5 and <6)
25 | Cc1ccc(CN2CCC(CNC(=O)C3CCN(c4nc(-c5ccc(C#N)cc5)no4)CC3)C2)cc1 (centres unmarked) [Compound 158, 1-(3-(4-cyanophenyl)-1,2,4-oxadiazol-5-yl)-N-((1-(4-methylbenzyl)pyrrolidin-3-yl)methyl)piperidine-4-carboxamide] | ++ (++ ≥5 and <6)
26 | COc1ccc(-c2noc(N3CCC(C(=O)NCC4CCN(Cc5ccc(C)cc5)C4)CC3)n2)cn1 (centres unmarked) [Compound 159, 1-(3-(6-methoxypyridin-3-yl)-1,2,4-oxadiazol-5-yl)-N-((1-(4-methylbenzyl)pyrrolidin-3-yl)methyl)piperidine-4-carboxamide] | + (+ >3 and <5)
27 | COc1ccc(-c2csc(N3CCC(C(=O)NCC4CCN(Cc5ccc(C)cc5)C4)CC3)n2)cc1 (centres unmarked) [Compound 160, 1-(4-(4-methoxyphenyl)thiazol-2-yl)-N-((1-(4-methylbenzyl)pyrrolidin-3-yl)methyl)piperidine-4-carboxamide] | ++ (++ ≥5 and <6)
28 | COc1ccc(-c2noc(N3CCC(C(=O)NCc4ccncc4)CC3)n2)cc1 [Compound 161, 1-(3-(4-methoxyphenyl)-1,2,4-oxadiazol-5-yl)-N-(pyridin-4-ylmethyl)piperidine-4-carboxamide] | + (+ >3 and <5)
29 | COc1ccc(-c2noc(N3CCC(C(=O)NCc4cncnc4)CC3)n2)cc1 [Compound 162, 1-(3-(4-methoxyphenyl)-1,2,4-oxadiazol-5-yl)-N-(pyrimidin-5-ylmethyl)piperidine-4-carboxamide] | + (+ >3 and <5)
30 | O=C(NCc1cccnc1)C1CCN(c2nc(-c3ccc(Cl)cc3)no2)CC1 [Compound 163, 1-(3-(4-chlorophenyl)-1,2,4-oxadiazol-5-yl)-N-(pyridin-3-ylmethyl)piperidine-4-carboxamide] | + (+ >3 and <5)
31 | O=C(C1CCN(c2nc(-c3ccccc3Cl)no2)CC1)N1CCOCC1 [Compound 164, (1-(3-(2-chlorophenyl)-1,2,4-oxadiazol-5-yl)piperidin-4-yl)(morpholino)methanone] | − (− ≤3)
32 | O=C(C1CCN(c2nc(-c3cccc(Cl)c3)no2)CC1)N1CCOCC1 [Compound 165, (1-(3-(3-chlorophenyl)-1,2,4-oxadiazol-5-yl)piperidin-4-yl)(morpholino)methanone] | + (+ >3 and <5)

— patent publication US12344600B2, “c-Myc mRNA translation modulators and uses thereof in the treatment of cancer” (Anima Biotech Inc., priority 2022, dated 2025)
